Test results published in PubChem BioAssay (NCI).
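Values below derive from 48-hour exposures of cells grown in 96-well plates, with endpoints linearly interpolated between the two concentrations bracketing the appropriate inhibition level. Abbreviation: GI50, concentration required for 50% inhibition of growth. TGI: total growth inhibition.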

How the values were obtained:
Assay in all cases: inhibition of tumour cell growth, NCI panel, 48 h
CCRF-CEM leukemia = tested on: CCRF-CEM leukemia
786-0 renal = tested on: 786-0 renal
BT-549 breast = tested on: BT-549 breast
MDA-MB-231 breast = tested on: MDA-MB-231 breast
HCT-116 colon = tested on: HCT-116 colon
SF-539 CNS = tested on: SF-539 CNS
A498 renal = tested on: A498 renal
COLO 205 colon = tested on: COLO 205 colon

Compound | GI50 (CCRF-CEM leukemia) [µM] | TGI (CCRF-CEM leukemia) [µM] | GI50 (786-0 renal) [µM] | TGI (786-0 renal) [µM] | GI50 (BT-549 breast) [µM] | TGI (BT-549 breast) [µM] | GI50 (MDA-MB-231 breast) [µM] | TGI (MDA-MB-231 breast) [µM] | GI50 (HCT-116 colon) [µM] | TGI (HCT-116 colon) [µM] | GI50 (SF-539 CNS) [µM] | TGI (SF-539 CNS) [µM] | GI50 (A498 renal) [µM] | TGI (A498 renal) [µM] | GI50 (COLO 205 colon) [µM] | TGI (COLO 205 colon) [µM]
O=C(NCC(=O)N1CC[C@H](NC2CCC(O)(c3ccc(-c4ncccn4)cn3)CC2)C1)c1cccc(C(F)(F)F)c1 (some centres undefined) | 88.6 | > 100 | > 100 | > 100 | 34.9 | > 100 | 49.5 | > 100 | 36.4 | > 100 | 96.5 | > 100 | 24.5 | > 100 | 30.2 | > 100
COc1cc(OC)c2cc(C(=O)O)c(=O)oc2c1 | > 100 | > 100 | > 95.4 | > 100 | > 100 | > 100 | > 100 | > 100 | > 100 | > 100 | > 96.2 | > 100 | > 21.4 | > 75 | > 100 | > 100
COc1cc(C2CC(c3ccc(Nc4ccnc5cc(Cl)ccc45)cc3)=NN2C=O)cc(OC)c1OC (centres undefined) | 1.82 | 69.4 | 2.31 | 4.8 | 1.92 | 3.97 | 4.39 | 54 | 3.21 | 9.61 | 2.75 | 6.38 | 15.3 | 49.5 | 3.73 | 70.4
COc1cc2c(cc1OCCCCCn1c(-c3ccco3)nc3ccccc31)N=C[C@@H]1CCCN1C2=O | < 0.01 | 0.09 | < 0.01 | 1.3 | < 0.01 | < 0.0209 | < 0.0141 | 0.224 | < 0.01 | 16.1 | < 0.01 | < 0.0472 | < 0.01 | < 0.0156 | < 0.01 | < 0.01
CC(C)=CCc1ccc(O)c(=O)cc1C(C)C | 0.485 | > 100 | 0.816 | 5.4 | 1.05 | 36.4 | 3.36 | > 100 | 0.469 | > 100 | 0.764 | > 41.1 | 5.18 | 64.7 | 3.27 | > 100
O=C1CSC(=S)N1Cc1cccnc1 | 4.37 | 86.2 | 3.67 | 11.2 | 18.6 | 44.3 | 4.47 | 17.2 | 3.36 | 11 | 6.33 | 23.4 | 22.7 | 56.2 | 5.59 | 21.1
O=C(Nc1ccc(Cl)cc1)c1ccc([N+](=O)[O-])o1 | 4.11 | 49.4 | 1.91 | 4.05 | 1.9 | 4.06 | 6.79 | 47.2 | 1.39 | 3.11 | 2.22 | 4.9 | 3.46 | 14.8 | 1.75 | 3.18
COc1cc(C(=O)N2CCN(c3ccccc3OC)CC2)c(N)cc1OCc1ccccc1 | 34.7 | 98.3 | 45.6 | > 100 | 27.6 | 66.8 | 19.2 | 42.6 | 20.7 | 42.8 | 45.3 | > 100 | 30.6 | 81.2 | 59.4 | > 100
O=C1c2cccc3cccc(c23)C(=O)N1CCCCN1CCN(CCCCOc2ccc(-c3nc4ccc(N5CCOCC5)cc4[nH]3)cc2)CC1 | > 100 | > 100 | > 100 | > 100 | 35.4 | > 100 | 9.16 | > 100 | > 100 | > 100 | > 100 | > 100 | > 100 | > 100 | > 100 | > 100
COc1ccc(Cn2cnc3cc(C(=O)Nc4cccc5ccccc45)ccc32)c(OC)c1 | 0.0407 | > 100 | 0.045 | > 100 | 0.0603 | 6.53 | 0.0894 | 4.31 | 0.0374 | 4.49 | 0.0316 | 0.147 | 0.0226 | 0.0771 | 0.0462 | 0.724
O=c1[nH]ccc2nc(-c3ccc(CN4CCC(c5nc(-c6ccccn6)n[nH]5)CC4)cc3)c(-c3ccccc3)cc12 | 2.04 | > 100 | 0.737 | 18.1 | 0.711 | 30 | 19.2 | > 75.8 | 17.2 | > 92.7 | 4.81 | 20.8 | < 0.0345 | 0.355 | 1.54 | > 100
O=C1/C(=C/c2ccc(Cl)cc2)CN(Cc2cn(CCNc3ccnc4cc(Cl)ccc34)nn2)C/C1=C\c1ccc(Cl)cc1 | 0.309 | > 100 | 0.247 | 0.616 | 0.488 | 1.44 | 0.293 | 0.966 | 0.203 | 0.436 | 0.264 | 0.742 | 1.14 | 2.37 | 0.354 | 1.07
CO/N=C(\COc1ccc2c(c1)oc(=O)c1cc(OC)ccc12)c1ccc(F)cc1 | 47.5 | > 100 | 14.3 | 28.7 | 23.4 | 55.2 | 15.8 | 42.8 | 14.9 | 41.2 | 23.5 | 63 | 22.3 | 93.5 | 59.6 | > 100
COc1ccc(N(C)c2nc(Cl)nc3ccn(C)c23)cc1 | < 0.01 | > 100 | < 0.01 | > 100 | < 0.01 | > 100 | < 0.01 | > 100 | < 0.01 | > 100 | < 0.01 | > 100 | < 0.01 | > 100 | < 0.01 | < 0.01
